Where two headings read alike, the source gives them in different places.
Target: human NaV 1.8 (Homo sapiens, UniProt Q9Y5Y9)
Assay: E-VIPR assay detecting and measuring NaV inhibition properties
Type: cell-based
Settings: HEK cells expressing truncated human NaV 1.8
Procedure, shortened: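 HEK cells expressing truncated, fully active human NaV1.8, with KIR2.1 BacMam co-transduction, were loaded with CC2-DMPE/DiSBAC6(3) voltage-sensing dyes for 20 min at room temperature. Compounds were tested in 11-point 3-fold dilutions (300 nM top final), optionally with 25% human serum, under electrical stimulation with FRET read-out.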

[1] = in the presence of human serum (compound numbers followed by *), read-out: IC50 in the E-VIPR Assay, performed in the presence of human serum
[2] = no human serum, read-out: IC50 in the E-VIPR Assay

Sequence of human NaV 1.8 (Q9Y5Y9 126-399 limits assumed): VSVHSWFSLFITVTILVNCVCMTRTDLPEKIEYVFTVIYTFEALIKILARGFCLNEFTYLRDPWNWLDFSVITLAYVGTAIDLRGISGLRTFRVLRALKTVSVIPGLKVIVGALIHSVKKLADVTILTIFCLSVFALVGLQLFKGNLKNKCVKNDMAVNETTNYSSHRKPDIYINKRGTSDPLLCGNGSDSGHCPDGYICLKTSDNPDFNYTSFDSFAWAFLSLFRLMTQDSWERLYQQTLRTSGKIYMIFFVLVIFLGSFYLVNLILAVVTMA
Sequence of human NaV 1.8 (Q9Y5Y9 660-890 limits assumed): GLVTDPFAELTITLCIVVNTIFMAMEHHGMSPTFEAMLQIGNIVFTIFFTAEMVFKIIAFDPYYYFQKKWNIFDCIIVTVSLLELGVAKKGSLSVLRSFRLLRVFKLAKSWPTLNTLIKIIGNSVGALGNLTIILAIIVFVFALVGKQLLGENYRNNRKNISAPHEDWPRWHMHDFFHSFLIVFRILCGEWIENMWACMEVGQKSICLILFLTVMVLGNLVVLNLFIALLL
Sequence of human NaV 1.8 (Q9Y5Y9 1148-1722 limits assumed): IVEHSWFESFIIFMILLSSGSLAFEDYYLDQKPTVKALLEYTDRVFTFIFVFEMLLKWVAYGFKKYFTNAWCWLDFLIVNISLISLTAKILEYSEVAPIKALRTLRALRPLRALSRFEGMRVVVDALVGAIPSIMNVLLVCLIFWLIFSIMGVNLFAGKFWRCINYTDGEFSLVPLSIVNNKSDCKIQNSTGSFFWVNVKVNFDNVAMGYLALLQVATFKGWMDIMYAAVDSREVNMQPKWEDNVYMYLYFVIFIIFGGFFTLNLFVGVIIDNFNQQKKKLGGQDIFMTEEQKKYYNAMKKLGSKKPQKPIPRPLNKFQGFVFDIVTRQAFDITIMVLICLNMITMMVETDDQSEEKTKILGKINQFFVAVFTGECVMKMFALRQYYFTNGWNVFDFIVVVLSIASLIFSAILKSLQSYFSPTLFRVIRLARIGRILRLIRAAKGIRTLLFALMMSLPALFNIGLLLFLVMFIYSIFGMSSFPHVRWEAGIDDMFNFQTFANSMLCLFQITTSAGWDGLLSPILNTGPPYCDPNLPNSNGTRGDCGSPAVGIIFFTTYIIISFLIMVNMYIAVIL

| IC50 [1] [nM] | IC50 [2] [nM] | SMILES |
| --- | --- | --- |
| ≥ 1000 | – | CNCc1cc(NC(=O)C2OC(C)(C(F)(F)F)C(C)C2c2ccc(F)c(F)c2OC)c(F)cn1 (stereo not shown) [Compound 58, 3-(3,4-difluoro-2-methoxy-phenyl)-N-[5-fluoro-2-(methylaminomethyl)-4-pyridyl]-4,5-dimethyl-5-(trifluoromethyl)tetrahydrofuran-2-carboxamide] |
| – | ≥ 1000 | Cc1nn(C(F)F)cc1NC(=O)[C@@H]1O[C@@](C)(C(F)(F)F)[C@@H](C)[C@H]1c1ccc(F)c(F)c1CCN1CC2(COC2)C1 [Compound 679, (2R,3S,4S,5R)-N-[1-(difluoromethyl)-3-methyl-pyrazol-4-yl]-3-[3,4-difluoro-2-[2-(2-oxa-6-azaspiro[3.3]heptan-6-yl)ethyl]phenyl]-4,5-dimethyl-5-(trifluoromethyl)tetrahydrofuran-2-carboxamide] |
| ≥ 1000 | – | COc1c(C2C(C(=O)Nc3ccnc(C(O)CO)c3)OC(C)(C)C2C)ccc(F)c1F (single isomer, unassigned) [Compound 722, rel-3-(3,4-difluoro-2-methoxyphenyl)-N-(2-(1,2-dihydroxyethyl)pyridin-4-yl)-4,5,5-trimethyltetrahydrofuran-2-carboxamide] |
| – | 10 to 100 | C[C@H]1[C@@H](c2ccc(F)c(F)c2OCC2COC2)[C@H](C(=O)Nc2cccnc2)O[C@@]1(C)C(F)(F)F [Compound 578, (2R,3S,4S,5R)-3-(3,4-difluoro-2-(oxetan-3-ylmethoxy)phenyl)-4,5-dimethyl-N-(pyridin-3-yl)-5-(trifluoromethyl)tetrahydrofuran-2-carboxamide] |
| – | < 10 | COc1c([C@H]2[C@H](C(=O)Nc3ccnc(N4C[C@H](C)N(C)CC4=O)c3)O[C@@](C)(C(F)(F)F)[C@H]2C)ccc(F)c1F [Compound 474, (2R,3S,4S,5R)-3-(3,4-difluoro-2-methoxyphenyl)-N-(2-((S)-4,5-dimethyl-2-oxopiperazin-1-yl)pyridin-4-yl)-4,5-dimethyl-5-(trifluoromethyl)tetrahydrofuran-2-carboxamide] |
| ≥ 1000 | – | COc1c([C@H]2C[C@@](C)(C(F)(F)F)O[C@@H]2C(=O)Nc2ccnc(C(O)CO)c2)ccc(F)c1F (single isomer, unassigned) [Compound 686] |
| – | 100 to 1000 | COc1c([C@H]2[C@H](C(=O)Nc3cncc(CO)n3)O[C@@](C)(C(F)(F)F)[C@H]2C)ccc(F)c1F [Compound 382, (2R,3S,4S,5R)-3-(3,4-difluoro-2-methoxyphenyl)-N-(6-(hydroxymethyl)pyrazin-2-yl)-4,5-dimethyl-5-(trifluoromethyl)tetrahydrofuran-2-carboxamide] |
| – | 100 to 1000 | CNCc1c([C@H]2[C@H](C(=O)Nc3cn(C(F)F)nc3C)O[C@@](C)(C(F)(F)F)[C@H]2C)ccc(F)c1F [Compound 671, (2R,3S,4S,5R)-3-(3,4-difluoro-2-((methylamino)methyl)phenyl)-N-(1-(difluoromethyl)-3-methyl-1H-pyrazol-4-yl)-4,5-dimethyl-5-(trifluoromethyl)tetrahydrofuran-2-carboxamide] |
| – | ≥ 1000 | COc1c(C2C(C(=O)Nc3ccnc(CO)c3)OC(C)(C(F)(F)F)C2C)ccc(F)c1F (stereo not shown) [Compound 61, 3-(3,4-difluoro-2-methoxy-phenyl)-N-[2-(hydroxymethyl)-4-pyridyl]-4,5-dimethyl-5-(trifluoromethyl)tetrahydrofuran-2-carboxamide] |
| – | < 10 | C[C@H]1[C@@H](c2ccc(F)c(F)c2OCCO)[C@H](C(=O)Nc2ccnc(C(F)F)c2)O[C@@]1(C)C(F)(F)F [Compound 566, (2R,3S,4S,5R)-3-(3,4-difluoro-2-(2-hydroxyethoxy)phenyl)-N-(2-(difluoromethyl)pyridin-4-yl)-4,5-dimethyl-5-(trifluoromethyl)tetrahydrofuran-2-carboxamide] |
| – | < 10 | COC(=O)COc1c([C@H]2[C@H](C(=O)Nc3cn(C(F)F)nc3C)O[C@@](C)(C(F)(F)F)[C@H]2C)ccc(F)c1F [Compound 602, methyl 2-[6-[(2R,3S,4S,5R)-2-[[1-(difluoromethyl)-3-methyl-pyrazol-4-yl]carbamoyl]-4,5-dimethyl-5-(trifluoromethyl)tetrahydrofuran-3-yl]-2,3-difluoro-phenoxy]acetate] |
| – | ≥ 1000 | COc1c([C@H]2[C@H](C(=O)NC(C)c3ccn[nH]3)O[C@@](C)(C(F)(F)F)[C@H]2C)ccc(F)c1F (stereo partly drawn) [Compound 275, (2R,3S,4S,5R)-N-(1-(1H-pyrazol-5-yl)ethyl)-3-(3,4-difluoro-2-methoxyphenyl)-4,5-dimethyl-5-(trifluoromethyl)tetrahydrofuran-2-carboxamide] |
| – | 10 to 100 | COc1c([C@H]2[C@H](C(=O)Nc3ccnc(N4C(=O)[C@H]5C[C@@H]4CN5)c3)O[C@@](C)(C(F)(F)F)[C@H]2C)ccc(F)c1F [Compound 482, (2R,3S,4S,5R)-3-(3,4-difluoro-2-methoxyphenyl)-4,5-dimethyl-N-(2-((1R,4R)-3-oxo-2,5-diazabicyclo[2.2.1]heptan-2-yl)pyridin-4-yl)-5-(trifluoromethyl)tetrahydrofuran-2-carboxamide] |

The next lines start with the molecule.

| SMILES | IC50 [1] [nM] | IC50 [2] [nM] |
| --- | --- | --- |
| COc1c(C2CC(C)(C(F)(F)F)OC2C(=O)Nc2ccnc(C(O)C(C)O)c2)ccc(F)c1F (single isomer, unassigned) [Compound 695] | ≥ 1000 | – |
| COc1c([C@H]2[C@H](C(=O)Nc3ccnc(N4CC(N)CC4=O)c3)O[C@@](C)(C(F)(F)F)[C@H]2C)ccc(F)c1F (single isomer, unassigned) [Compound 496, rel-(2R*,3S*,4S*,5R*)-N-(2-(4-amino-2-oxopyrrolidin-1-yl)pyridin-4-yl)-3-(3,4-difluoro-2-methoxyphenyl)-4,5-dimethyl-5-(trifluoromethyl)tetrahydrofuran-2-carboxamide] | – | 10 to 100 |
| COc1c([C@@H]2[C@@H](C(=O)Nc3cc[n+]([O-])c(C(O)CO)c3)O[C@](C)(C(F)(F)F)[C@@H]2C)ccc(F)c1C (relative stereo) [Compound 138, rel-2-(1,2-dihydroxyethyl)-4-((2S,3R,4R,5S)-3-(4-fluoro-2-methoxy-3-methylphenyl)-4,5-dimethyl-5-(trifluoromethyl)tetrahydrofuran-2-carboxamido)pyridine 1-oxide] | ≥ 1000 | – |
| COc1c([C@H]2[C@H](C(=O)Nc3ccnc(C(F)CO)c3)O[C@@](C)(C(F)(F)F)[C@H]2C)ccc(F)c1F (single isomer, unassigned) [Compound 439, rel-(2R*,3S*,4S*,5R*)-3-(3,4-difluoro-2-methoxyphenyl)-N-(2-(1-fluoro-2-hydroxyethyl)pyridin-4-yl)-4,5-dimethyl-5-(trifluoromethyl)tetrahydrofuran-2-carboxamide] | – | < 10 |
| COc1c([C@H]2[C@H](C(=O)Nc3ccnc(N4CCN(C)[C@@H](C)C4=O)c3)O[C@@](C)(C(F)(F)F)[C@H]2C)ccc(F)c1F [Compound 476, (2R,3S,4S,5R)-3-(3,4-difluoro-2-methoxyphenyl)-N-(2-((S)-3,4-dimethyl-2-oxopiperazin-1-yl)pyridin-4-yl)-4,5-dimethyl-5-(trifluoromethyl)tetrahydrofuran-2-carboxamide] | – | 10 to 100 |
| COc1c([C@H]2[C@H](C(=O)Nc3ccnc(OC4CCN(C)C4=O)c3)O[C@@](C)(C(F)(F)F)[C@H]2C)ccc(F)c1F (single isomer, unassigned) [Compound 197, rel-(2R*,3S*,4S*,5R*)-3-(3,4-difluoro-2-methoxyphenyl)-4,5-dimethyl-N-(2-((1-methyl-2-oxopyrrolidin-3-yl)oxy)pyridin-4-yl)-5-(trifluoromethyl)tetrahydrofuran-2-carboxamide] | – | < 10 |
| COc1c([C@H]2[C@H](C(=O)Nc3cc(C(C)(O)CF)ncn3)O[C@@](C)(C(F)(F)F)[C@H]2C)ccc(F)c1F (single isomer, unassigned) [Compound 228, rel-(2R*,3S*,4S*,5R*)-3-(3,4-difluoro-2-methoxyphenyl)-N-(6-(1-fluoro-2-hydroxypropan-2-yl)pyrimidin-4-yl)-4,5-dimethyl-5-(trifluoromethyl)tetrahydrofuran-2-carboxamide] | – | 10 to 100 |
| COc1c([C@H]2[C@H](C(=O)Nc3ccnc(C(O)CO)c3)OC(C)(C)[C@H]2C)ccc(F)c1F (relative stereo) [Compound 721, rel-(2R,3S,4S)-3-(3,4-difluoro-2-methoxyphenyl)-N-(2-(1,2-dihydroxyethyl)pyridin-4-yl)-4,5,5-trimethyltetrahydrofuran-2-carboxamide] | 100 to 1000 | – |
| COCC(O)c1cc(NC(=O)[C@@H]2O[C@@](C)(C(F)(F)F)[C@@H](C)[C@H]2c2ccc(F)c(F)c2OCCN2CC(F)C2)ccn1 (single isomer, unassigned) [Compound 608, rel-(2R*,3S*,4S*,5R*)-3-(3,4-difluoro-2-(2-(3-fluoroazetidin-1-yl)ethoxy)phenyl)-N-(2-(1-hydroxy-2-methoxyethyl)pyridin-4-yl)-4,5-dimethyl-5-(trifluoromethyl)tetrahydrofuran-2-carboxamide] | – | 10 to 100 |
| C[C@H]1[C@@H](c2ccc(F)c(F)c2O[C@H]2C[C@@H](O)C2)[C@H](C(=O)Nc2cncc(C#N)c2)O[C@@]1(C)C(F)(F)F [Compound 659, (2R,3S,4S,5R)-N-(5-cyanopyridin-3-yl)-3-(3,4-difluoro-2-((1S,3R)-3-hydroxycyclobutoxy)phenyl)-4,5-dimethyl-5-(trifluoromethyl)tetrahydrofuran-2-carboxamide] | – | 10 to 100 |
| COc1c([C@H]2C[C@@](C)(C(F)(F)F)O[C@@H]2C(=O)Nc2ccnc(C(O)CO)c2)ccc(F)c1C (single isomer, unassigned) [Compound 705] | ≥ 1000 | – |
| COc1c(C2C(C(=O)Nc3ccnc(C(O)C(C)O)c3)OC(C)(C(F)(F)F)C2C)ccc(F)c1C (single isomer, unassigned) [Compound 143] | ≥ 1000 | – |
